Measurements taken from PubChem BioAssay (NCI).
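Test compounds were applied to cells in 96-well plates for 48 hours at 5 doses. At the GI50, growth is halved. TGI is the concentration that stops growth completely.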

Experiments:
Assay in all cases: growth of human tumour cells (NCI), 48 h
HCC-2998 colon = test system: HCC-2998 colon
M14 melanoma = test system: M14 melanoma
MOLT-4 leukemia = test system: MOLT-4 leukemia
NCI-H23 lung = test system: NCI-H23 lung
NCI-H460 lung = test system: NCI-H460 lung
SNB-75 CNS = test system: SNB-75 CNS
UACC-257 melanoma = test system: UACC-257 melanoma
UO-31 renal = test system: UO-31 renal
MDA-MB-231 breast = test system: MDA-MB-231 breast
MDA-N = test system: MDA-N

SMILES | TGI (HCC-2998 colon) | TGI (M14 melanoma) | TGI (MOLT-4 leukemia) | TGI (NCI-H23 lung) | TGI (NCI-H460 lung) | TGI (SNB-75 CNS) | TGI (UACC-257 melanoma) | TGI (UO-31 renal) | TGI (MDA-MB-231 breast) | TGI (MDA-N) | GI50 (HCC-2998 colon) | GI50 (M14 melanoma) | GI50 (MDA-MB-231 breast) | GI50 (MOLT-4 leukemia) | GI50 (NCI-H23 lung) | GI50 (NCI-H460 lung) | GI50 (SNB-75 CNS) | GI50 (UACC-257 melanoma) | GI50 (UO-31 renal)
Cc1c2cc[n+](C)cc2c(C)c2c1[nH]c1ccc(OC(C)(C)C)cc12 | > 100 µM | > 100 µM | > 100 µM | > 100 µM | > 100 µM | > 100 µM | > 100 µM | > 100 µM | – | – | – | – | – | – | – | – | – | – | –
CCC(/C(=N/NC(=O)C[N+](C)(C)C)c1ccccc1)C1OC(=O)c2ccccc21 (stereo unspecified) | > 100 µM | > 100 µM | > 100 µM | > 100 µM | > 100 µM | > 100 µM | > 100 µM | > 100 µM | – | – | – | – | – | – | – | – | – | – | –
OC[C@H](O)[C@@H](OCc1ccccc1)[C@H](NCc1ccccc1)c1cccs1 | – | > 100 µM | > 100 µM | > 100 µM | > 100 µM | > 100 µM | > 100 µM | 68.8 µM | > 100 µM | > 100 µM | – | – | – | – | – | – | – | – | –
O=C(/C=C/c1cc2ccccc2[nH]c1=O)c1ccc(O)cc1 | 16 µM | 6.57 µM | 9.91 µM | 20 µM | 6.87 µM | 23 µM | 16 µM | 26.7 µM | 15 µM | – | 4.13 µM | 2.6 µM | 3.51 µM | 3.04 µM | 3.18 µM | 2.39 µM | 9.3 µM | 3.87 µM | 4.38 µM
COc1ccc(NC(=O)CC2SC(=Nc3ccc(Cl)cc3C)NC2=O)c([N+](=O)[O-])c1 (stereo unspecified) | > 100 µM | > 100 µM | > 100 µM | > 100 µM | > 100 µM | > 100 µM | > 100 µM | > 100 µM | – | – | – | – | – | – | – | – | – | – | –
Nc1ccc2ncc(NCc3ccc(F)cc3)nc2c1 | > 100 µM | > 100 µM | > 100 µM | > 100 µM | > 100 µM | > 100 µM | > 100 µM | > 100 µM | – | – | – | – | – | – | – | – | – | – | –
O=[N+]([O-])c1cc(-c2ccc([As](=O)(O)O)cc2)ccc1[As](=O)(O)O | – | > 100 µM | > 100 µM | > 100 µM | > 100 µM | – | > 100 µM | > 100 µM | > 100 µM | > 100 µM | – | – | – | – | – | – | – | – | –
Cc1nc2cc3[nH]c4ccccc4c(=O)c3cc2s1 | > 100 µM | > 100 µM | > 100 µM | > 100 µM | > 100 µM | > 100 µM | > 100 µM | > 100 µM | – | – | – | – | – | – | – | – | – | – | –
COc1ccc(-c2oc(C=Nc3ccccc3)c([N+](=O)[O-])c2-c2ccc(OC)c(OC)c2)cc1OC | > 100 µM | > 100 µM | > 100 µM | > 100 µM | > 100 µM | > 100 µM | > 100 µM | > 100 µM | – | – | – | – | – | – | – | – | – | – | –
Cc1nc(-n2nc(-c3ccccc3)cc2-c2ccccc2)sc1C(/C=C\c1ccc([N+](=O)[O-])cc1)=N/NC(=S)NN | 40.3 µM | > 80.1 µM | > 100 µM | 60.6 µM | > 66.7 µM | > 100 µM | > 67.7 µM | > 58.3 µM | – | 50.7 µM | – | – | – | – | – | – | – | – | –
O=C(C#Cc1ccccc1)Nc1ccccc1CC(c1c[nH]c2ccccc12)c1c[nH]c2ccccc12 | 50.6 µM | 39.6 µM | 34.2 µM | 37.1 µM | – | > 100 µM | > 100 µM | > 100 µM | – | – | – | – | – | – | – | – | – | – | –
CN(C)c1ccc(/C=C(\C#N)C(=O)c2ccccc2)cc1Br | > 100 µM | > 100 µM | > 100 µM | > 100 µM | > 100 µM | > 100 µM | > 100 µM | > 100 µM | – | – | – | – | – | – | – | – | – | – | –
COc1ccccc1-c1nc[nH]c1-c1ccccc1OC | – | 78.3 µM | > 100 µM | > 100 µM | > 100 µM | 60.7 µM | > 100 µM | > 100 µM | > 100 µM | 34.9 µM | – | – | – | – | – | – | – | – | –
N#Cc1ccccc1C#C/C=C\C#Cc1ccccn1 | 27.6 µM | 28.8 µM | – | 25.5 µM | 44.3 µM | 67.6 µM | 28.8 µM | 32.3 µM | – | – | – | – | – | – | – | – | – | – | –
CCOC1=C2N=C(C(CC)c3ccc(F)cc3)N=C2C(=O)c2ccccc21 (stereo unspecified) | > 100 µM | > 68.3 µM | > 86.2 µM | 70.2 µM | > 79.8 µM | 81.5 µM | 49 µM | 55.5 µM | – | – | – | – | – | – | – | – | – | – | –
COC(=O)[C@@]1(Cc2ccc(OC(C)=O)cc2)Cc2cc3ccccc3n2N1 | – | > 100 µM | > 100 µM | > 100 µM | – | – | 52.1 µM | > 100 µM | > 100 µM | 77.6 µM | – | – | – | – | – | – | – | – | –
Nc1nc2c(nnn2C2C=C(CO)C(O)C2O)c(=O)[nH]1 (stereo unspecified) | > 100 µM | > 100 µM | > 100 µM | > 100 µM | > 100 µM | > 100 µM | > 100 µM | > 100 µM | – | – | – | – | – | – | – | – | – | – | –
